The target of the assay is T1, human adenosine A2b receptor (Homo sapiens, UniProt P29275).
T1 sequence (P29275 1-332): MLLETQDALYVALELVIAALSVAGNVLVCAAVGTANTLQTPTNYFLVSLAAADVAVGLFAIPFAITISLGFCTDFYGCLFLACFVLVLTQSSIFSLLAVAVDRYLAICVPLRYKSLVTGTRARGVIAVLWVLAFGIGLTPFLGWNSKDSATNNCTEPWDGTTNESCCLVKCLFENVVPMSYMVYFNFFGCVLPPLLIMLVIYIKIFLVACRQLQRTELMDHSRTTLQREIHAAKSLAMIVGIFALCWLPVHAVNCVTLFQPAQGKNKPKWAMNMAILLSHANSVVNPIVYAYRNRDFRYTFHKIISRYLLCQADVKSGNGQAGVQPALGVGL
Nature of the assay: Cellular in vitro reporter gene test for A2b receptor activity (antagonism of NECA). The format is cell-based. More on the design: expressed in transfected cells; host or cells: CHO-K1 (Chinese hamster ovary) with CRE-luciferase reporter. To be noted: recombinant CHO-K1 cells, CRE-luciferase reporter, co-incubation with EC50 concentration of NECA, 3 hours. As to the method:
The identification of selective antagonists of the human adenosine A2b receptor and the quantification of the efficacy and selectivity of the compounds according to the invention was carried out with the aid of recombinant cell lines for the human adenosine receptors A1, A2a, A2b and A3. These cell lines were originally derived from an ovarepithelial cell of the hamster (Chinese Hamster Ovary, CHO-K1, American Type Culture Collection, Manassas, Va. 20108, USA). In addition to the respective recombinantly expressed adenosine receptor for testing the efficacy at the A1, A2a and A2b receptors, the cell lines contain a reporter gene construct where expression of the firefly (Photinus pyralis) luciferase is under the control of a promoter which can be activated via intracellular signal cascades by stimulation of the receptors with the (not subtype-selective) adenosine receptor agonist NECA (5′-N-ethylcarboxamidoadenosine) [S. J. Hill, J. G. Baker, S. Rhees, Curr. Opin. Pharmacol. 1, 526-532 (2001)].
In the case of the A2a and A2b cell lines, this is a minimal promoter having a plurality of cAMP-responsive elements (CRE). Stimulation of the Gs-coupled A2b or A2a receptors by NECA ultimately leads, via formation of cAMP, to CRE-dependent induction of luciferase expression, which is detected 3 hours after the start of the incubation with NECA using a detection solution in a suitable luminometer. For testing the antagonists, initially, in a pre-experiment, the concentration of NECA which, at the test day in question, results in half-maximum stimulation of luciferase expression (EC50 concentration) is determined. By joint incubation of this EC50 concentration of NECA with the substances to be tested, it is possible to determine their antagonistic activity.
Table 1 below lists the IC50 values from the A2b receptor assay for individual working examples (in some cases as means of a plurality of independent individual determinations and rounded to two significant figures; it may also be the case here that various independent preparations of the respective working example have been used): […]
Background: Reporter assays use an easily measured gene product as a stand-in for the process of interest.

By IC50 is commonly meant the concentration that inhibits the measured activity by half.

In the case of `Cc1c(CN2CCNC2=O)sc2c1c(=O)n(C1CC1C)c(=O)n2CCCF` (racemic) [Example 90, 1-(3-Fluoropropyl)-5-methyl-3-(2-methylcyclopropyl)-6-[(2-oxoimidazolidin-1-yl)methyl]thieno[2,3-d]pyrimidine-2,4(1H,3H)-dione], the IC50 turned out to be 5.3 nM.

Take `Cc1c(CN2CCNC2=O)sc2c1c(=O)n(C1CC1C)c(=O)n2CCC(F)(F)F` (racemic) [Example 93, 5-Methyl-3-(2-methylcyclopropyl)-6-[(2-oxoimidazolidin-1-yl)methyl]-1-(3,3,3-trifluoropropyl)thieno[2,3-d]pyrimidine-2,4(1H,3H)-dione]: the half-inhibitory concentration (IC50) came out at 1.8 nM.

Consider `COCCn1c(=O)n(C2CC2C)c(=O)c2c(C)c(CN3CCNC3=O)sc21` (racemic) [Example 94, 1-(2-Methoxyethyl)-5-methyl-3-(2-methylcyclopropyl)-6-[(2-oxoimidazolidin-1-yl)methyl]thieno[2,3-d]pyrimidine-2,4(1H,3H)-dione], for which the IC50 is 7.2 nM.

On to `Cc1c(CN2CCNC2=O)sc2c1c(=O)n(C1CC1(C)C)c(=O)n2CCCF` (racemic) [Example 97, 3-(2,2-Dimethylcyclopropyl)-1-(3-fluoropropyl)-5-methyl-6-[(2-oxoimidazolidin-1-yl)methyl]thieno[2,3-d]pyrimidine-2,4(1H,3H)-dione], for which the IC50 was found to be 26 nM.

As to `Cc1c(CN2CCNC2=O)sc2c1c(=O)n(C1CC1(C)C)c(=O)n2CCC(F)(F)F` (racemic) [Example 100, 3-(2,2-Dimethylcyclopropyl)-5-methyl-6-[(2-oxoimidazolidin-1-yl)methyl]-1-(3,3,3-trifluoropropyl)thieno[2,3-d]pyrimidine-2,4(1H,3H)-dione], the half-maximal inhibitory concentration (IC50) came to 12 nM.

For the compound `COCCn1c(=O)n(C2CC2(C)C)c(=O)c2c(C)c(CN3CCNC3=O)sc21` (racemic) [Example 103, 3-(2,2-Dimethylcyclopropyl)-1-(2-methoxyethyl)-5-methyl-6-[(2-oxoimidazolidin-1-yl)methyl]thieno[2,3-d]pyrimidine-2,4(1H,3H)-dione], the concentration for half-maximal inhibition (IC50) is 21 nM.

For `Cc1c(Cn2nc[nH]c2=O)sc2c1c(=O)n(C1CC1)c(=O)n2CC1CCC(F)(F)C1` (racemic) [Example 209, 3-Cyclopropyl-1-[(3,3-difluorocyclopentyl)methyl]-5-methyl-6-[(5-oxo-4,5-dihydro-1H-1,2,4-triazol-1-yl)methyl]thieno[2,3-d]pyrimidine-2,4(1H,3H)-dione], the IC50 worked out at 200 nM.

On to `Cc1c(CN2CCNC2=O)sc2c1c(=O)n(C1CC1C)c(=O)n2C` (racemic) [Example 221, 1,5-Dimethyl-3-(2-methylcyclopropyl)-6-[(2-oxoimidazolidin-1-yl)methyl]thieno[2,3-d]pyrimidine-2,4(1H,3H)-dione], for which the 50% inhibitory concentration (IC50) came to 3.3 nM.

With `CCn1c(=O)n(C2CC2C)c(=O)c2c(C)c(CN3CCNC3=O)sc21` (racemic) [Example 224, 1-Ethyl-5-methyl-3-(2-methylcyclopropyl)-6-[(2-oxoimidazolidin-1-yl)methyl]thieno[2,3-d]pyrimidine-2,4(1H,3H)-dione], the half-inhibitory concentration (IC50) came to 11 nM.

Turning to `CCCn1c(=O)n(C2CC2C)c(=O)c2c(C)c(CN3CCNC3=O)sc21` (racemic) [Example 227, 5-Methyl-3-(2-methylcyclopropyl)-6-[(2-oxoimidazolidin-1-yl)methyl]-1-propylthieno[2,3-d]pyrimidine-2,4(1H,3H)-dione], the half-inhibitory concentration (IC50) came to 2.9 nM.

Regarding `Cc1c(CN2CCNC2=O)sc2c1c(=O)n(C1CC1C)c(=O)n2CCF` (racemic) [Example 231, 1-(2-Fluoroethyl)-5-methyl-3-(2-methylcyclopropyl)-6-[(2-oxoimidazolidin-1-yl)methyl]thieno[2,3-d]pyrimidine-2,4(1H,3H)-dione], the IC50 is 2.3 nM.

In the case of `Cc1c(CN2CCNC2=O)sc2c1c(=O)n(C1CC1C)c(=O)n2CC(F)F` (racemic) [Example 234, 1-(2,2-Difluoroethyl)-5-methyl-3-(2-methylcyclopropyl)-6-[(2-oxoimidazolidin-1-yl)methyl]thieno[2,3-d]pyrimidine-2,4(1H,3H)-dione], the IC50 worked out at 1.9 nM.

Consider `Cc1c(CN2CCNC2=O)sc2c1c(=O)n(C1CC1C)c(=O)n2CC(F)(F)F` (racemic) [Example 237, 5-Methyl-3-(2-methylcyclopropyl)-6-[(2-oxoimidazolidin-1-yl)methyl]-1-(2,2,2-trifluoroethyl)thieno[2,3-d]pyrimidine-2,4(1H,3H)-dione], for which the IC50 was determined as 4.4 nM.

Consider `Cc1c(CN2CCNC2=O)sc2c1c(=O)n(C1CC1C)c(=O)n2CCCC(F)(F)F` (racemic) [Example 242, 5-Methyl-3-(2-methylcyclopropyl)-6-[(2-oxoimidazolidin-1-yl)methyl]-1-(4,4,4-trifluorobutyl)thieno[2,3-d]pyrimidine-2,4(1H,3H)-dione], for which the IC50 came to 2.1 nM.

Regarding `Cc1c(CN2CCNC2=O)sc2c1c(=O)n(C1CC1C)c(=O)n2CCC(F)(F)C(F)F` (racemic) [Example 245, 5-Methyl-3-(2-methylcyclopropyl)-6-[(2-oxoimidazolidin-1-yl)methyl]-1-(3,3,4,4-tetrafluorobutyl)thieno[2,3-d]pyrimidine-2,4(1H,3H)-dione], the IC50 was determined as 6.7 nM.

Turning to `Cc1c(CN2CCNC2=O)sc2c1c(=O)n(C1CC1C)c(=O)n2CC1CC(F)(F)C1` (racemic) [Example 252, 1-[(3,3-Difluorocyclobutyl)methyl]-5-methyl-3-(2-methylcyclopropyl)-6-[(2-oxoimidazolidin-1-yl)methyl]thieno[2,3-d]pyrimidine-2,4(1H,3H)-dione], the 50% inhibitory concentration (IC50) turned out to be 1.4 nM.

`COCCn1c(=O)n(C2CC2C)c(=O)c2c(C)c(CN3CCNC3=O)sc21` (racemic) [Example 258, 1-(2-Methoxyethyl)-5-methyl-3-(2-methylcyclopropyl)-6-[(2-oxoimidazolidin-1-yl)methyl]thieno[2,3-d]pyrimidine-2,4(1H,3H)-dione]: the IC50 came to 6.4 nM.

Turning to `Cc1c(CN2CCNC2=O)sc2c1c(=O)n(C1CC1C)c(=O)n2CCOC(F)(F)F` (racemic) [Example 261, 5-Methyl-3-(2-methylcyclopropyl)-6-[(2-oxoimidazolidin-1-yl)methyl]-1-[2-(trifluoromethoxy)ethyl]thieno[2,3-d]pyrimidine-2,4(1H,3H)-dione], the IC50 came to 15 nM.

`Cc1c(CN2CCNC2=NC#N)sc2c1c(=O)n(C1CC1C)c(=O)n2CCOC(F)(F)F` (racemic) [Example 264, [1-({5-Methyl-3-(2-methylcyclopropyl)-2,4-dioxo-1-[2-(trifluoromethoxy)ethyl]-1,2,3,4-tetrahydrothieno[2,3-d]pyrimidin-6-yl}methyl)imidazolidin-2-ylidene]cyanamide]: the IC50 turned out to be 16 nM.

Consider `COC(=O)N=C1NCCN1Cc1sc2c(c1C)c(=O)n(C1CC1C)c(=O)n2CCOC(F)(F)F` (racemic) [Example 267, Methyl [1-({5-methyl-3-(2-methylcyclopropyl)-2,4-dioxo-1-[2-(trifluoromethoxy)ethyl]-1,2,3,4-tetrahydrothieno[2,3-d]pyrimidin-6-yl}methyl)imidazolidin-2-ylidene]carbamate], for which the IC50 is 2.4 nM.

These data come from patent US20200016159A1, “N3-CYCLICALLY SUBSTITUTED THIENOURACILS AND USE THEREOF” (Bayer Aktiengesellschaft, priority 2016, published 2020).
